Assay results as given in patent US5550110A, “Endothelin Antagonists II” (Warner-Lambert Company, priority 1994, dated 1996).
Peptide text beside a SMILES is read from it.

How the values were obtained:
[1] = test system: ETA (rabbit femoral artery); conditions: ET-1 as agonist, endothelium-denuded rings
Text: (§1) In Vitro Antagonism of ET-1 Stimulated Vasoconstriction in the Rabbit Femoral Artery (ETA) and Sarafotoxin 6c Stimulated Vasoconstriction in the Rabbit Pulmonary Artery (ETB)
(§2) Male New Zealand rabbits were killed by cervical dislocation and exsanguination. Femoral and pulmonary arteries were isolated, cleaned of connective tissue, and cut into 4-mm rings. The endothelium was denuded by placing the rings over hypodermic tubing (32 guage for femoral rings and 28 guage for pulmonary rings, Small Parts, Inc, Miami, Fla.) and gently rolling them. Denuded rings were mounted in 20 mL organ baths containing Krebs-bicarbonate buffer (composition in mM: NaCl, 118.2; NaHCO3, 24.8; KCl, 4.6; MgSO4 7.H2 O, 1.2; KH2 PO4, 1.2; CaCl2.2H2 O; Ca--Na2 EDTA, 0.026; dextrose, 10.0), that was maintained at 37° C. and gassed continuously with 5% CO2 in oxygen (pH 7.4). Resting tension was adjusted to 3.0 g for femoral and 4.0 g pulmonary arteries; the rings were left for 90 minutes to equilibrate.

[2] = target: ETB (rabbit pulmonary artery) (Oryctolagus cuniculus, UniProt Q9N0W7)
Chain of ETB (rabbit pulmonary artery) (Q9N0W7 27-441): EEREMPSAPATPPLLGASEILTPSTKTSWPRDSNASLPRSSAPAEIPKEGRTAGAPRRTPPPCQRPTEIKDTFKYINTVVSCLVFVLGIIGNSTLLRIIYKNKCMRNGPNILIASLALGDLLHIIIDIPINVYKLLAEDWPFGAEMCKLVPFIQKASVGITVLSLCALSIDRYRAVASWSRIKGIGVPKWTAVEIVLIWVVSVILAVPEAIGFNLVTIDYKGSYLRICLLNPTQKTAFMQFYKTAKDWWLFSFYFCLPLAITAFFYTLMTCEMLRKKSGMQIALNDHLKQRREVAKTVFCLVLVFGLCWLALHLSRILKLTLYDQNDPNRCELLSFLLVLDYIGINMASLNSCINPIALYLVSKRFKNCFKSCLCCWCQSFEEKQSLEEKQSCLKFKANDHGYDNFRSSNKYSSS
Text: as §1, §2

[3] = test system: CaCO-2 cells (human colon adenocarcinoma cell line); format: in vitro ADME
Description: For experiments, the cells were counted, then diluted to 2.5×10^5 cells/mL for planting (400 μL per well) onto Snapwell culture membranes with 2.5 mL media in the lower chamber. Media in the […] was changed every 2 to 3 days. Cells used for this series of experiments were between passage 38 and 91. 2-[N-Morpholino]ethanesulfonic acid (MES)+25 mM glucose was used as incubation buffer for all the experiments and all incubation solutions were prepared to an osmotic pressure of 280 to 300 milliosmoles. The concentration of the endothelin antagonist being studied (for all experiments) was 100 μM and another endothelin antagonist with similar HPLC characteristics (retention time 2-3 minutes from the ET antagonist being studied, and similar chemical characteristics) was used at a concentration of 25 μM as an internal standard to compensate for any injection error. Prior to the start of the experiment, the transepithelial electrical resistance (TEER) was measured for each Snapwell (in media) at three points of the membrane. […] The membranes were washed by swirling in 0.9% normal saline and mounted in the pretreated diffusion chambers [0.1 mg/mL human serum albumin for 1 to 2 hours at 37° C. with O2 bubbling followed by air drying at 37° C. overnight, then with 4.5 to 5.0 mL dosing solution (MES+glucose+^14 C-PEG-4000 (5000 dpm/50 μL)+drug) for 5 minutes and 4.5 to 5.0 mL MES+glucose rinse just before the experiment.] The apical (donor) side was filled with 4.5 to 5.0 mL dosing solution, the basolateral (receiver) side with MES+glucose. Samples were removed from the donor and receiver compartments over the course of the experiment and analyzed for ^14 C-PEG 4000 (cell membrane integrity) and endothelin content.

[4] = target: T1, rat recombinant ETB receptor (CHO cells) (Rattus norvegicus, UniProt P21451); assay: Inhibition of ET-1 stimulated arachidonic acid release (AAR-B); format: cell-based; conditions: ET-1 0.3 nM
T1 construct: expressed in transfected cells; host or cells: CHO cells
T1 sequence (P21451 27-442): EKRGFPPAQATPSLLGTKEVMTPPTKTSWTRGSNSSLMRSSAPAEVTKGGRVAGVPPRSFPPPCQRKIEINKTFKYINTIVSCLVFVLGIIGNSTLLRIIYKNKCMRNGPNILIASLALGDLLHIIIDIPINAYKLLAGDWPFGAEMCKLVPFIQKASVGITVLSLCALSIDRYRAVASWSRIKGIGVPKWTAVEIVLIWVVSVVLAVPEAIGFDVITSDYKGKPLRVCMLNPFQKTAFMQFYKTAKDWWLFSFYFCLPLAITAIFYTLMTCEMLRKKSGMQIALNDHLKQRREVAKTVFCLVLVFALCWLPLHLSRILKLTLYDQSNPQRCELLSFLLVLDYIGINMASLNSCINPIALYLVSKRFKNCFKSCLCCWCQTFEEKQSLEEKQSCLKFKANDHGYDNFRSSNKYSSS
Description: In Vitro Inhibition of ET-1 Stimulated Arachidonic Acid Release in Cultured Rabbit Vascular Smooth Muscle Cells (AAR-A) or CHO Cells Expressing Rat Recombinant ETB Receptor (AAR-B) by Compounds of Formula I
Antagonist activity is measured by the ability of added compounds to reduce endothelin-stimulated arachidonic acid release in cultured vascular smooth muscle cells as arachidonic acid release (AAR). [^3 H] Arachidonic Acid Loading Media (LM) is DME/F12+0.5% fetal calf serum (FCS)×0.25 mCi/mL [^3 H] arachidonic acid (Amersham). Confluent monolayers of cultured rabbit renal artery vascular smooth muscle cells (AAR-A) or CHO cells expressing rat recombinant ETB receptor (AAR-B) were incubated in 0.5 mL of the LM over 18 hours, at 37° C., in 5% CO2. The LM was aspirated and the cells were washed once with the assay buffer (Hank's balanced salt solution [BSS]+10 mM HEPES+fatty acid-free BSA (1 mg/mL)), and incubated for 5 minutes with 1 mL of the prewarmed assay buffer. This solution was aspirated, followed by an additional 1 mL of prewarmed assay buffer, and further incubated for another 5 minutes. A final 5-minute incubation was carried out in a similar manner. The same procedure was repeated with the inclusion of 10 μL of the test compound (1 nM to 1 μM) and 10 μL ET-1 (0.3 nM) and the incubation was extended for 30 minutes. This solution was then collected, […] of scintillation cocktail was added, and the amount of [^3 H] arachidonic acid was determined in a liquid scintillation counter.

[5] = test system: endothelin receptor (ETA), rabbit renal artery vascular smooth muscle cells; assay: Endothelin Receptor Binding Assay-A (ERBA-A), intact cell binding of [125I]-ET-1; conditions: [125I]-ET-1 25 pM
Description: The compounds of Formula I are valuable antagonists of endothelin. […] Thus, the compounds of Formula I were tested for their ability to inhibit [^125 I]-ET-1([^125 I]-Endothelin-1) binding in a receptor assay according to the following procedures: Endothelin Receptor Binding Assay-A (ERBA-A) Intact Cell Binding of [^125 I]-ET-1 The cells used were rabbit renal artery vascular smooth muscle cells grown in a 48-well dish (1 cm^2) (confluent cells). The assay buffer was a medium 199 containing Hanks salts and 25 mM Hepes buffer (Gibco 380-2350AJ), supplemented with penicillin/streptomycin/fungizone (0.5%) and bovine serum albumin (1 mg/mL). Amersham radioiodinated endothelin-1 [^125 I]-ET-1 was used at final concentration of 20,000 cpm/0.25 mL (25 pM). […] Second, remove the assay buffers, place the dish on ice, and add 150 μL of cold assay buffer described above to each well. Third, add […] each of cold [^125 I]-ET-1 and competing ligand to the solution (at the same time if possible). Next, place dish in a 37° C. water bath for about 2 hours and gently agitate the dish every 15 minutes. Discard the radioactive incubation mixture in the sink and wash wells 3 times with 1 mL of cold phosphate buffered saline. Last, add […] of 0.25 molar sodium hydroxide, agitate for 1 hour on a rotator, and then transfer the sodium hydroxide extract to gamma counting tubes and count the radioactivity.

SMILES | pA2 Femoral [1] | Kb [2] | absorption in the gut suggested by CaCO-2 values [3] | IC50 [4] | IC50 [5]
CC[C@H](C)[C@H](NC(=O)[C@H](CC(=O)O)NC(=O)[C@H](CC(C)C)NC(=O)[C@H](NC(C)=O)C1c2ccccc2CCc2ccccc21)C(=O)N[C@H](C(=O)N[C@@H](Cc1c[nH]c2ccccc12)C(=O)O)[C@@H](C)CC [Example 1, Ac-D-Bhg-Leu-Asp-Ile-Ile-Trp] (HELM PEPTIDE1{[ac].[O=C([C@H](N[*:1])C1c2ccccc2CCc2ccccc21)[*:2]].L.D.I.I.W}$$$$V2.0) | 6.8 | 79.4 nM | 5-10% | 20 nM | –
CC[C@H](C)[C@H](NC(=O)[C@H](CC(=O)O)NC(=O)[C@H](CC(C)C)NC(=O)[C@H](NC(C)=O)C1c2ccccc2CCc2ccccc21)C(=O)N(C)[C@H](C(=O)N[C@@H](Cc1c[nH]c2ccccc12)C(=O)O)[C@@H](C)CC [Example 19, Ac-D-Bhg-Leu-Asp-Ile-N-MeIle-Trp] (HELM PEPTIDE1{[ac].[O=C([C@H](N[*:1])C1c2ccccc2CCc2ccccc21)[*:2]].L.D.I.[meI].W}$$$$V2.0) | 7.3 | 251 nM | 5-10% | – | 0.5 nM
